The test system of experiment [1] is Basophils (CD63+/CD203c+). The experiment can be described thus: Basophil activation by COVID-19 vaccines and vaccine components, blood of a hypersensitive subject. The format is cell-based, human. The following applies: subject with known allergic reaction to mRNA-1273 booster.
A further experiment has as its system Neutrophils (CD11b+). The format is cell-based, human.

As for “2,2-dimyristoyl-rac-glycero3-methoxypolyethylene glycol-2000 [PEG2000-DMG]”, the “basophil activation and gross granulocyte activation in response to vaccine components” value in experiment [1] is reported as “marked increase”. Besides, in the experiment with Neutrophils (CD11b+), the “percent neutrophil activation versus control, vaccine components” value is “higher percent neutrophil activation versus control”.

Regarding “2-[(polyethylene glycol)-2000]-N,N-ditetradecylacetamide [ALC0159]”, in experiment [1], the “basophil activation and gross granulocyte activation in response to vaccine components” value was “marked increase”. The “percent neutrophil activation versus control, vaccine components” value in the experiment with Neutrophils (CD11b+) was “higher percent neutrophil activation versus control”.

2-hydroxypropyl-β-cyclodextrin [HBCD]: in the experiment with Neutrophils (CD11b+), the “percent neutrophil activation versus control, vaccine components” value is listed as “higher percent neutrophil activation versus control”.

As to `CCCCCCCCC(CCCCCC)C(=O)OCCCCCCN(CCCCO)CCCCCCOC(=O)C(CCCCCC)CCCCCCCC` (stereo not shown) [ALC0315], in experiment [1], the “basophil activation and gross granulocyte activation in response to vaccine components” value is reported as “marked increase”. The “percent neutrophil activation versus control, vaccine components” value with Neutrophils (CD11b+) is “higher percent neutrophil activation versus control”.

`CCCCCCCCCCCCCCCCCC(=O)OC[C@H](COP(=O)([O-])OCC[N+](C)(C)C)OC(=O)CCCCCCCCCCCCCCCCC` [DSPC, 1,2-diastearoyl-sn-glycero-3-phosphocholine]: in the experiment with Neutrophils (CD11b+), the “percent neutrophil activation versus control, vaccine components” value is recorded as “did not”.

As for `CCCCCCCCCCCOC(=O)CCCCCN(CCO)CCCCCCCC(=O)OC(CCCCCCCC)CCCCCCCC` [SM102], the “basophil activation and gross granulocyte activation in response to vaccine components” value in experiment [1] is listed as “marked increase”. Also, the “percent neutrophil activation versus control, vaccine components” value with Neutrophils (CD11b+) is on record as “higher percent neutrophil activation versus control”.

Regarding `CCO` [ethanol], the “percent neutrophil activation versus control, vaccine components” value with Neutrophils (CD11b+) is recorded as “did not”.

For the molecule polysorbate-80 [PS80], the “basophil activation and gross granulocyte activation in response to vaccine components” value in experiment [1] is “marked increase”. The “percent neutrophil activation versus control, vaccine components” value in the experiment on Neutrophils (CD11b+) was “higher percent neutrophil activation versus control”.

The values are drawn from patent publication US20250327794A1, “FLUOROMETRIC METHODS FOR DETECTION OF ALLERGIC SENSITIVITY TO ENVIRONMENTAL, FOODSTUFF, AND MEDICAMENT STIMULANTS” (CELL SCIENCE SYSTEMS CORPORATION, priority 2022, published 2025).
